In patent publication US9434728B1, “Nitrogen containing compounds and their use” (WOCKHARDT LIMITED, priority 2013, dated 2016):
≈ marks a conversion by molar mass, not a printed value.

Assays:
Type in all cases: cell-based
[1] = tested on: E. coli (7MP); experiment: Antibacterial activity, agar dilution MIC (CLSI); settings: Escherichia coli, ESBL SHV, CMY
Protocol: (§1) The biological activity of representative compounds according to the invention against various bacterial strains was investigated. In a typical study, overnight grown bacterial cultures were diluted appropriately and inoculated on the agar media containing doubling dilutions of the test compounds. Observations for growth or no growth was performed after 16-20 hours of incubation at 35±2° C. in the ambient air. The overall procedure was performed as per Clinical and Laboratory Standards Institute (CLSI) recommendations (Clinical and Laboratory Standards Institute (CLSI), Performance Standards for Antimicrobial Susceptibility Testing, 20th Informational Supplement, M 100-S20, Volume 30, No. 1, 2010). […] The Compound (XI), which is the free zwitterionic form of Compound (X), was also studied for the antibacterial activity profile.

[2] = tested on: E. coli (NCTC 13352); experiment: Antibacterial activity, agar dilution MIC (CLSI); settings: Escherichia coli, NCTC13352, ESBL TEM 10
Protocol: as §1

[3] = tested on: E. coli (NCTC 13353); experiment: Antibacterial activity, agar dilution MIC (CLSI); settings: Escherichia coli, NCTC13353, ESBL CTXM-15
Protocol: as §1

[4] = tested on: K. pneumoniae (H521); experiment: Antibacterial activity, agar dilution MIC (CLSI); settings: Klebsiella pneumoniae, ESBL KPC
Protocol: as §1

[5] = tested on: K. pneumoniae (S48); experiment: Antibacterial activity, agar dilution MIC (CLSI); settings: Klebsiella pneumoniae, ESBL NDM, SHV
Protocol: as §1

[6] = tested on: P. aeruginosa (MBL18); experiment: Antibacterial activity, agar dilution MIC (CLSI); settings: Pseudomonas aeruginosa, ESBL VIM
Protocol: as §1

[7] = tested on: E. coli H483; experiment: Antibacterial activity in combination with Ceftazidime, agar dilution MIC; settings: Escherichia coli; agent alone; E. coli H483, ESBL CMY-2
Protocol: as §1
(§2) The antibacterial activity of the Compound (XI) was also studied in combination with other beta-lactam antibacterial agents. […] The antibacterial activity of the combination of Compound (XI) (4 μg/ml) and Ceftazidime was compared with (i) combination of Cetftazidime and Avibactam (4 μg/ml); and (ii) Imipenem alone.

[8] = tested on: K. pneumoniae ATCC 700603; experiment: as above; settings: Klebsiella pneumoniae, ATCC700603; agent alone; K. pneumoniae ATCC 700603, ESBL SHV-18
Protocol: as §1, §2

[9] = tested on: K. pneumoniae J101; experiment: as above; settings: Klebsiella pneumoniae; agent alone; K. pneumoniae J101, ESBL TEM-1, SHV-12, OMP
Protocol: as §1, §2

[10] = tested on: K. pneumoniae J102; experiment: as above; settings: Klebsiella pneumoniae; agent alone; K. pneumoniae J102, ESBL TEM-1, SHV-5, OMP
Protocol: as §1, §2

[11] = tested on: resistant ESBL strains of K. pneumoniae, E. coli and P. aeruginosa; experiment: Antibacterial activity profile
Protocol: as §1

## CO/N=C(\C(=O)N[C@@H]1C(=O)N2C(C(=O)[O-])=C(C[N+]3(C)CCCC3)CS[C@H]12)c1csc(N)n1 [Cefepime]
[1]
  MIC: 16 µg/mL (≈ 33.3 µM)
[2]
  MIC: 2 µg/mL (≈ 4.16 µM)
[3]
  MIC: > 32 µg/mL
[4]
  MIC: > 32 µg/mL
[5]
  MIC: > 32 µg/mL
[6]
  MIC: > 32 µg/mL

## C[C@@H](O)[C@H]1C(=O)N2C(C(=O)O)=C(SCCN=CN)C[C@H]12 [Imipenem]
[1]
  MIC: 1 µg/mL (≈ 3.34 µM)
[2]
  MIC: 0.25 µg/mL (≈ 0.835 µM)
[3]
  MIC: 0.25 µg/mL (≈ 0.835 µM)
[4]
  MIC: 16 µg/mL (≈ 53.4 µM)
[5]
  MIC: 16 µg/mL (≈ 53.4 µM)
[6]
  MIC: 16 µg/mL (≈ 53.4 µM)
[7]
  MIC: 0.25 µg/mL
[8]
  MIC: 0.12 µg/mL
[9]
  MIC: 2 µg/mL
[10]
  MIC: 8 µg/mL

## CC(C)(O/N=C(\C(=O)N[C@@H]1C(=O)N2C(C(=O)[O-])=C(C[n+]3ccccc3)CS[C@H]12)c1csc(N)n1)C(=O)O [Ceftazidime]
[1]
  MIC: > 32 µg/mL
[2]
  MIC: > 32 µg/mL
[3]
  MIC: > 32 µg/mL
[4]
  MIC: > 32 µg/mL
[5]
  MIC: > 32 µg/mL
[6]
  MIC: > 32 µg/mL
[7]
  MIC: > 32 µg/mL
[8]
  MIC: 16 µg/mL
[9]
  MIC: > 32 µg/mL
[10]
  MIC: > 32 µg/mL

## NC[C@@H]1CC[C@@H]2CN1C(=O)N2OS(=O)(=O)O [Compound (XI), (2S, 5R)-6-sulfooxy-2-(aminomethyl)-7-oxo-1,6-diaza-bicyclo[3.2.1]octane]
[1]
  MIC: 4 µg/mL (≈ 15.9 µM)
[2]
  MIC: 2 µg/mL (≈ 7.96 µM)
[3]
  MIC: 1 µg/mL (≈ 3.98 µM)
[4]
  MIC: 1 µg/mL (≈ 3.98 µM)
[5]
  MIC: 1 µg/mL (≈ 3.98 µM)
[6]
  MIC: 8 µg/mL (≈ 31.8 µM)
[11]
  antibacterial activity (in words): good antibacterial activity
